Measured values reported in patent US4237273A, “Bis(nitrosoureido)-polyol derivatives” (Richter Gedeon Vegyeszeti Gyar RT, priority 1977, dated 1980).

How the values were obtained:
[1] = tested on: Ehrlich acites carcinoma; test: Antitumour activity, Ehrlich ascites carcinoma (Table 2); assay type: in vivo, CFLP mice; settings: 1.5 mg./kg. 4× i.p., from the 2nd day; animals recovered/treated
Procedure: (§1) The leukemia and ascites type tumours were transplanted intraperitoneally, using an amount of 10^5 -10^7 cells, while in the case of solid tumours, small pieces of tumours were implanted subcutaneously with a trocar. Treatment:
(§2) Mice were treated with a volume of 0.1 ml./10 g. body-weight of a suspension of the tested compounds in water containing 2% of Tween-80, while rats were treated with a volume of 0.1 ml./100 g. bodyweight of a suspension of the tested compounds in water containing 5% of Tween-80.
(§3) The ascites and leukemia-type tumours were evaluated with the exception of the Rausher leukemia by the increase of the life span and by complete recovery. [formula]
(§4) Recovery=90 days of tumour free life after transplantation.

[2] = tested on: P-388 leukemia; test: Antitumour activity, P-388 leukemia (Table 2); assay type: in vivo, BDF1 mice; settings: 12.0 mg./kg. 4× i.p., from the 2nd day; animals recovered/treated
Procedure: as §1, §2, §3, §4

[3] = tested on: Ehrlich ascites carcinoma; test: Way of activity: mitosis index in Ehrlich ascites carcinoma; assay type: in vivo, Mice; settings: in 24 hours; i.p. on 6th day, equitoxic doses
Procedure: (§5) Mice, being infected with Ehrlich ascites carcinoma, were treated intraperitoneally on the 6th day after transplantation with equitoxic doses of compounds 1, 2 and 6. The duration of the activity was investigated by determining the total cell number and the way of action by determining the mitosis index* and the thymidine index**. It could be shown that both compounds 1 and 2 inhibit the increase of the total cell number for 35 days, while a similar inhibition of the reference compound 6 lasts only for 17 days. As far as the quality of the activity is concerned, compounds 1 and 2 decrease the mitosis-index and the thymidine index in 24 hours by 90%, while in the case of compound 6 the decrease amounts only to 45 to 50%, and the maximum is reached on the 4th day.
*mitosis index=number of dividing cells/1000 tumour cells

[4] = tested on: BDF1 mice; test: Acute toxicity (LD50), 21 days observation; assay type: in vivo; settings: BDF1 mice of both sexes
Procedure: Species: BDF1 mice of both sexes
Treatment: a volume of 0.2 ml./10 g. body weight of a suspension of the tested compounds in water containing 2% of Tween-80 was used.
Number of animals: 10/dose
Observation time: 21 days

[5] = tested on: Ehrlich ascites carcinoma; test: Duration of activity: total cell number in Ehrlich ascites carcinoma; assay type: in vivo, Mice; settings: i.p. on the 6th day after transplantation, equitoxic doses
Procedure: as §5

[6] = tested on: Harding-Passey melanoma; test: Antitumour activity, Harding-Passey melanoma, tumour weight (Table 3); assay type: in vivo, CFLP mice; settings: from the 4th day after transplantation
Procedure: as §1, §2
(§6) In the case of solid tumours (Harding-Passey melanoma, S-180 and Yoshida sarcoma) the tumours were removed on the 8 to 14th day, and the inhibition was calculated by the weight of the tumours, using the following formula: [formula]

[7] = tested on: S-180 s.c. sarcoma; test: Antitumour activity, S-180 s.c. sarcoma, tumour weight (Table 3); assay type: in vivo, CFLP mice; settings: from the 2nd day
Procedure: as §1, §2, §6

[8] = tested on: NK/Ly ascites lymphoma; test: Antitumour activity, NK/Ly ascites lymphoma (Table 2); assay type: in vivo, CFLP mice; settings: from the 2nd day; for Recovery (90 day survival): animals recovered/treated
Procedure: as §1, §2, §3, §4

[9] = tested on: Developed Yoshida s.c. sarcoma; test: Recovery from developed Yoshida s.c. sarcoma, treated on 6th day (Table 4); assay type: in vivo, CFY rats; settings: 50 mg./kg. 1× i.p. on 6th day; animals recovered/treated
Procedure: as §1, §2, §4

[10] = tested on: L-120 leukemia; test: Antitumour activity, L-1210 leukemia (Table 2); assay type: in vivo, BDF1 mice; settings: from the 2nd day; for Recovery (90 day survival): animals recovered/treated
Procedure: as §1, §2, §3, §4

[11] = tested on: Yoshida s.c. sarcoma; test: Antitumour activity, Yoshida s.c. sarcoma, tumour weight (Table 3); assay type: in vivo, CFY rats; settings: from the 2nd day
Procedure: as §1, §2, §6

[12] = tested on: Rausher leukemia; test: Antitumour activity, Rauscher leukemia, spleen weight (Table 3); assay type: in vivo, CFLP mice; settings: 10.0 mg./kg. 6× i.p., from the 2nd day
Procedure: as §1, §2, §6
A similar method was applied in the case of the Rauscher leukemia too, but the weight of the spleen was taken, instead of the tumour, in the formula mentioned above.

[13] = tested on: Ehrlich ascites carcinoma; test: Way of activity: thymidine index (3H-thymidine incorporation into DNS) in Ehrlich ascites carcinoma; assay type: in vivo, Mice; settings: in 24 hours; i.p. on 6th day, equitoxic doses
Procedure: as §5
**thymidine index=^3 H-thymidine incorporation into the DNS of the tumour cell.

In the case of “1,4-bis[3-(2-chloroethyl)-N-nitrosoureido]-1,4-dideoxy-D,L-threitol [Compound 1]”, the “Recovery (90 day survival)” value [1] is reported as 6/8, the “Recovery (90 day survival)” value [2] is reported as 7/8 and the “Decrease of the mitosis-index” value [3] is reported as 90%. For the same substance, the LD50 value i.p. ([4]; i.p.) was 80 mg/kg, the LD50 value p.o. ([4]; p.o.) was 135 mg/kg and the “Duration of inhibition of the increase of the total cell number” value [5] was 35 days. For the same substance, the “Inhibition (tumour weight)” value ([6]; 10.0 mg./kg. 5× p.o.) was 96%, the “Inhibition (tumour weight)” value ([6]; 24.0 mg./kg. 1× i.p.) was 81% and the “Inhibition (tumour weight)” value ([7]; 3.0 mg./kg. 2× i.p.) was 43%. The “Inhibition (tumour weight)” value ([7]; 10.0 mg./kg. 4× p.o.) was 42%, the “Inhibition (tumour weight)” value ([7]; 12.0 mg./kg. 4× i.p.) was 80% and the “Recovery (90 day survival)” value ([8]; 1.5 mg./kg. "433" i.p.) was 6/8. The “Recovery (90 day survival)” value ([8]; 3.0 mg./kg. 4× i.p.) was 8/8, the “Increase in life span” value ([8]; 30.0 mg./kg. 4× p.o.) was 89% and the “Recovery (90 day survival)” value ([8]; 30.0 mg./kg. 4× p.o.) was 1/7. The “Recovery (90 day survival)” value [9] was 5/7, the “Increase in life span” value ([10]; 7.5 mg./kg. 1× i.p.) was 45% and the “Recovery (90 day survival)” value ([10]; 7.5 mg./kg. 1× i.p.) was 2/8. The “Increase in life span” value ([10]; 12.5 mg./kg. 1× p.o.) was 23%, the “Recovery (90 day survival)” value ([10]; 12.5 mg./kg. 1× p.o.) was 1/8 and the “Increase in life span” value ([10]; 12.5 mg./kg. 3× p.o.) was 30%. The “Recovery (90 day survival)” value ([10]; 12.5 mg./kg. 3× p.o.) was 3/8, the “Increase in life span” value ([10]; 15.0 mg./kg. 1× i.p.) was 29% and the “Recovery (90 day survival)” value ([10]; 15.0 mg./kg. 1× i.p.) was 3/8. For the same substance, the “Increase in life span” value ([10]; 25.0 mg./kg. 1× p.o.) was 111%, the “Recovery (90 day survival)” value ([10]; 25.0 mg./kg. 1× p.o.) was 3/8 and the “Recovery (90 day survival)” value ([10]; 25.0 mg./kg. 3× p.o.) was 6/8. The “Increase in life span” value ([10]; 30.0 mg./kg. 1× i.p.) was 230%, the “Recovery (90 day survival)” value ([10]; 30.0 mg./kg. 1× i.p.) was 7/8 and the “Increase in life span” value ([10]; 50.0 mg./kg. 1× p.o.) was 84%. The “Recovery (90 day survival)” value ([10]; 50.0 mg./kg. 1× p.o.) was 4/8, the “Inhibition (tumour weight)” value ([11]; 12 mg./kg. 4× i.p.) was 99% and the “Inhibition (tumour weight)” value ([11]; 24 mg./kg. 1× i.p.) was 76%. For the same substance, the “Inhibition (spleen weight)” value [12] was 78% and the “Decrease of the thymidine index” value [13] was 90%.
